US20210198277A1, “AMINE-SUBSTITUTED ARYL OR HETEROARYL COMPOUNDS” (Epizyme, Inc., priority 2016, published 2021)

target: T1, EHMT2 (Homo sapiens, UniProt Q96KQ7); test: MDA-MB-231 H3K9me2 in-cell Western assay (EHMT2 ICW); assay type: cell-based; details: Table VII; read-out: EHMT2 ICW IC50
T1 construct: host or cells: MDA-MB-231
T1 sequence (Q96KQ7 1-1210): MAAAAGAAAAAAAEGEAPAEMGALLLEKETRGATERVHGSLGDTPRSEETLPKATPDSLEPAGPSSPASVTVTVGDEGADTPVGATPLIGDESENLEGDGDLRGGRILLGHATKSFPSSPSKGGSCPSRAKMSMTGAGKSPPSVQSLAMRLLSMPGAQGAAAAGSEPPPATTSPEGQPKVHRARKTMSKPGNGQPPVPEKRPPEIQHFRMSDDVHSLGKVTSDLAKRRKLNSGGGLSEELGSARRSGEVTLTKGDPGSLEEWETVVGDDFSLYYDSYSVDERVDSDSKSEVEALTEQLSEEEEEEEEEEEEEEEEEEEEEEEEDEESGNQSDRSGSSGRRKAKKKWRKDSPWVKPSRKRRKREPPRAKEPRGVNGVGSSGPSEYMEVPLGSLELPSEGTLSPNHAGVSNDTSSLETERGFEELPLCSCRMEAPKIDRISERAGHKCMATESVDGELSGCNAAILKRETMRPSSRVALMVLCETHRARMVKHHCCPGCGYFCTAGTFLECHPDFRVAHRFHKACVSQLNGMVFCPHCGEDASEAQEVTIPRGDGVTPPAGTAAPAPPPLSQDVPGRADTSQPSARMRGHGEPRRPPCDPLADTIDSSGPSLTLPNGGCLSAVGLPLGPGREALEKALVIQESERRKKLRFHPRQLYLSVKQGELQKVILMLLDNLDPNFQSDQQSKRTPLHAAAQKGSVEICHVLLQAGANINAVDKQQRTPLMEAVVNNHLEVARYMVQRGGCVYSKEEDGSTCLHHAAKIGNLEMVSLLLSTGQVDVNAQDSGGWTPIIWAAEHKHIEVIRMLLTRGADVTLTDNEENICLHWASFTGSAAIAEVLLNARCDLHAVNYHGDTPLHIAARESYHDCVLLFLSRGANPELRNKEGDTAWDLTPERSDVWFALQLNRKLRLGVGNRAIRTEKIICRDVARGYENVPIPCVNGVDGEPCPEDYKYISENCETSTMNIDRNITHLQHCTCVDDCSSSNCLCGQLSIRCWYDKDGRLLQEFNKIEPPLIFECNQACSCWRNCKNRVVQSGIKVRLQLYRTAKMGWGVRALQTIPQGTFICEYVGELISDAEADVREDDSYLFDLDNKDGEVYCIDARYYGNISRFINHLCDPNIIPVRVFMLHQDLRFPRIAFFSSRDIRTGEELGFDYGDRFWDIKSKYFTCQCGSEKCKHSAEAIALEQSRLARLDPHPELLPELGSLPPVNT
How it was run: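 IC50 values came from a variable-slope four-parameter fit on triplicate wells, using % inhibition from the 800/700 nm infrared signal ratio (anti-H3K9me2 versus DRAQ5 DNA stain). Before fixation and immunostaining, MDA-MB-231 cells, 3,000 per well, were exposed to compound for 48 h at 37 °C.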

`CNc1cc(C)nc(Nc2ccc(OC)c(CNCCN3CC[C@@H](F)C3)c2)n1` [Compound 1094] and `CNc1cc(C)nc(Nc2ccc(OC)c(CNCCN(C)C)c2)n1` [Compound 1101] fall in the same range of IC50: 100 to 1000 nM for the first, 100 to 1000 nM for the second.

First: CNCCNC(C)c1cc(Nc2nc(C)cc(NC)n2)ccc1OC (centres unmarked) [Compound 1095]
Second: CNC[C@H](C)NCc1cc(Nc2nc(C)cc(NC)n2)ccc1OC [Compound 1102]
The IC50 of the first is higher: 1000 to 10000 nM for the first, 100 to 1000 nM for the second.

`CCN1CCC(O)(COc2cc(Nc3nccc(NC)n3)ccc2OC)C1` (centres unmarked) [Compound 1096] and `CNc1ccnc(Nc2ccc(OC)c(OCC3(O)CCN(C)C3)c2)n1` (centres unmarked) [Compound 1097] cannot be ordered by IC50: > 10000 nM for the first, > 10000 nM for the second.

`CNc1ccnc(Nc2cnc(OC)c(OC[C@@H]3CCN(C4CCC4)C3)c2)n1` [Compound 1098] and `CNc1cc(C)nc(Nc2ccc(OC)c(COCCN3CCCC3)c2)n1` [Compound 1104] fall in the same range of IC50: 100 to 1000 nM for the first, 100 to 1000 nM for the second.

`CNc1cc(C)nc(Nc2ccc(OC)c(OC[C@H](O)CN3CC(C)C3)c2)n1` [Compound 1099] and `CCNc1cc(C)nc(Nc2ccc(OC)c(OC[C@H](O)CN3CCCC3)c2)n1` [Compound 1106] fall in the same range of IC50: 100 to 1000 nM for the first, 100 to 1000 nM for the second.

`CNc1cc(C)nc(Nc2ccc(OC)c(OC[C@H](O)CN3CC(C)C3)c2)n1` [Compound 1100] and `CNC[C@@H](C)NCc1cc(Nc2nc(C)cc(NC)n2)ccc1OC` [Compound 1103] fall in the same range of IC50: 1000 to 10000 nM for the first, 1000 to 10000 nM for the second.

First: CNc1cc(C)nc(Nc2ccc(OC)c(COCCN(C)C)c2)n1 [Compound 1105]
Second: CNc1cc(C2CCOCC2)c2cc(OC)c(OC[C@H](O)CN3CCCC3)cc2n1 [Compound 1107]
The IC50 of the first is higher: 1000 to 10000 nM for the first, 100 to 1000 nM for the second. The second is the more potent here.
